The values that follow come from patent US10556860B2, “hTERT modulators and methods of use” (Arizona Board of Regents on Behalf of the University of …, priority 2015, dated 2020).

Assay type in all cases: cell-based, human
Experiment [1] has as its system pGL3 constructs that contain the G124A, G124/125A, G138/139A, and G146A mutations. The experiment is described as follows: Luciferase assay, somatic mutant constructs in MCF7 cells. The note with it: 24 h. On the procedure:
Luciferase assay. From gDNA extracted from HeLa cells, the hTERT core promoter region, including −350 bp to +12 from the transcription start site, was amplified using a pair of primers, including KpnI and NheI restriction sites, for cloning of pGL3-hTERT with WT promoter sequence. Mutant constructs were generated by PCR-based site-directed mutagenesis. The sequence of each construct was confirmed by sequencing analysis. MCF7 cells in 24-well plate were transfected with 200 ng of pGL3 construct and 5 ng of pRL-TK by Fugene® HD Transfection Reagent and then incubated for 6 h. Media were replaced by fresh ones and the cells were treated with GTC365 or BRACO-19. The same volume of DMSO served as a control. After 24 h of incubation, cells were lysed by passive lysis buffer (Promega) and subjected to dual-luciferase assay (Promega) using an FB12 luminometer. The ratio of firefly to renilla luciferase activity was normalized to the DMSO to obtain the relative luciferase activity.
The effect of GTC365 on the somatic mutants in the hTERT promoter region was also examined by transfecting cells with pGL3 constructs that contain the G124A, G124/125A, G138/139A, and G146A mutations.

Experiment [2] relates to hTERT mRNA in melanoma cells carrying WT, G124A, G124/125A, G138/139A and G146A. The experiment is described as follows: qPCR of hTERT mRNA in melanoma cells (WT and mutants). The note with it: WT and all mutant melanoma cells, 72 h, 1 μM. On the procedure: (§1) Cell cultures. MCF7 and melanoma (UACC 383) cells were cultured in media of RPMI-1640 with 10% FBS and 1% penicillin/streptomycin. For melanoma cells UACC 2512, UACC 3090, UACC 1729, and UACC 2528, 20% FBS was included in the RPMI media instead of 10% FBS. Cells were incubated at 37° C. with 5% CO2.
(§2) qPCR. MCF7 and melanoma cells were treated with GTC365 and BRACO-19 for 72 h. Total RNA was extracted using an RNeasy mini-prep kit (Qiagen) and quantitated by measuring absorbance at 260 nm. cDNA was synthesized using a Takara PrimeScript™ RT Reagent Kit with gDNA eraser and then used as a template for qPCR. The qPCR was performed using Kapa Probe Fast qPCR Master Mix with ABI Taqman probes of hTERT (Hs00972656_m1), BCL2 (HS00608023_m1, FAM-labeled) or MYC (Hs00153408_m1), and GAPDH (Hs02758991_g1, VIC-labeled). The Ct values were measured by running Rotor-Gene Q, and the relative quantity of hTERT, BCL2, and MYC mRNA was obtained compared to GAPDH as an internal control.
(§3) To determine the cellular effect of GTC365 on proliferation as well as suppression of the activation of hTERT by G124A, G124/125A, G138/139A, and G146A mutants, melanoma cell lines were used alongside a WT cell line. All mutants increased the mRNA level of hTERT, compared to WT melanoma cells, in the 6.6-34-fold range. […]

For experiment [3], the system named is BCL2 mRNA in WT and G146A melanoma cells. The experiment is described as follows: qPCR of BCL2 mRNA in melanoma cells. The note with it: 72 h. The procedure:
as §1, §2, §3

In the case of `N=C(N)NCCCS(=O)(=O)Nc1ccc(Nc2c3ccccc3nc3cc([N+](=O)[O-])ccc23)cc1` [GTC365], the “luciferase activity of the mutants” value in experiment [1] is listed as “decreased luciferase activity of the mutants in a dose-dependent manner”. The “decrease in the mRNA level of hTERT” value in experiment [2] is listed as 25%. Further, the “mRNA level of BCL2” value in experiment [3] is given as “decreased”.
